Assay results published in article PMC4493835 (Frontiers in Microbiology, 2015).
Where two headings read alike, the source gives them in different places.

How the values were obtained:
Rhizoctonia solani = details: cited from earlier work
[1] = system: Pectobacterium atrosepticum; assay type: cell-based; details: inferred from wild type vs thanamycin mutants; data not shown
Protocol: (§1) For in vitro growth inhibition of fungi and oomycetes, SH-C52 and its derivative strains were, using an overnight culture in KB, spot-inoculated (3 μl) at the periphery of 1/5th strength PDA (pH 7.0) plates. After incubation for 2 days at 25°C, an agar plug (4-mm-diameter) from a freshly grown plate with the target organism was transferred to the center of the 1/5th PDA plate. Inhibition of radial growth of the fungus or the oomycete was monitored from 2 days after incubation up to 2 weeks after incubation, depending on the growth speed of the target organism. For in vitro bacteria and yeast inhibition assays, bacteria and yeast cells were included, after autoclaving and cooling to 45°C, into the 1/5th PDA medium at a concentration of ~10^5 cfu/ml. After solidifying and sufficient drying of the plates, SH-C52 and its derivative strains were, using an overnight culture in KB, spot-inoculated (3 μl) at the periphery of the bacteria or yeast containing plates.

Pseudomonas syringae = assay type: cell-based; details: inferred from wild type vs thanamycin mutants; data not shown
Protocol: as §1

Rhodotorula pilimanae = details: cited from earlier work
B. megaterium [2] = details: cited from earlier work
[3] = system: Arthrobacter crystallopoietes; details: cited from earlier work
Staphylococcus aureus = details: ref Reder-Christ et al., 2012; Schmidt et al., 2014; cited from earlier work
From the text: Recently, we discovered Pseudomonas sp. SH-C52, a strain representative of a larger population of Pseudomonads that contributes to the natural suppressiveness of a soil against the fungal plant pathogen Rhizoctonia solani (Mendes et al., [2011]). The gene cluster responsible for the activity of strain SH-C52 against R. solani is encoded by an NRPS, predicted to synthesize a 9-amino-acid chlorinated LP, designated thanamycin (Mendes et al., [2011]). The production and partial structure of thanamycin was resolved by live colony mass spectrometry (Watrous et al., [2012]). Next to thanamycin, stra ...

Phytophthora capsici = assay type: cell-based; details: 50 μM brabantamide A
Pythium ultimum = assay type: cell-based; details: 50 μM brabantamide A
phospholipase D = assay type: cell-based, Phytophthora infestans
Phytophthora infestans = assay type: cell-based
fungi = assay type: cell-based
B. megaterium [4] = details: cited from earlier work; remark: listed apart in the source

Which “antifungal activity against Rhizoctonia solani” value (Rhizoctonia solani) does the source give for thanamycin here?
Its value is “antifungal activity”.

What about the “activity against Pectobacterium atrosepticum” value [1] of the same substance?
Its value is “little activity”.

And the “activity against Pseudomonas syringae” value (Pseudomonas syringae)?
Its value is “little activity”.

Which “activity against the yeast Rhodotorula pilimanae” value (Rhodotorula pilimanae) does the source give for cormycin here?
The value was “active”.

What about the “activity against B. megaterium” value (B. megaterium [2]) of the same substance?
The value was “active”.

For brabantamide A, which “inhibition of phospholipase A2” value (phospholipase A2) is on record?
The value was “no indication was found”.

What about the “activity against Arthrobacter crystallopoietes” value [3] of the same substance?
Its value is “displays activity”.

What about the “activity against Staphylococcus aureus” value (Staphylococcus aureus) of the same substance?
The value was “displays activity”.

And the “activity against Phytophthora capsici” value (Phytophthora capsici)?
The value was “has activity”.

What about the “activity against Pythium ultimum” value (Pythium ultimum) of the same substance?
The value was “has activity”.

And the “concentration at which the increase in PtdBut levels already occurred” value (phospholipase D)?
Its value is no more than 1 µM.

What about the other phospholipid levels (phospholipase D) of the same substance?
The other phospholipid levels was “not affected”.

And the “phosphatidylbutanol (PtdBut) levels (indicates stimulation of phospholipase D)” value (phospholipase D; n = 2)?
The value was “increase”.

And the “concentration above which mycelial growth is inhibited (less dense mycelial mat)” value (Phytophthora infestans)?
The value was “above 5 μM”.

And the “activity against P. infestans” value (Phytophthora infestans; 1% DMSO, 18°C)?
The value was “has activity”.

And the antifungal activity (fungi)?
Its antifungal activity is “No antifungal activity”.

Which “activity against B. megaterium” value (B. megaterium [4]) does the source give for syringopeptin here?
Its value is “activity was observed”.

With brabantamide as the substance, how does the “variation in the phospholipid levels” value (phospholipase D) read?
Its value is “no significant variation”.

Which “activity against B. megaterium” value (B. megaterium [4]) does the source give for corpeptin here?
Its value is “activity was observed”.
